Experimental data as given in ChEMBL document CHEMBL1201862, “PubChem BioAssay data set” (2004).
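The compound was tested at five concentrations on cells cultured in 96-well plates, with a 48-hour exposure period. Here, GI50 denotes the concentration required for 50% inhibition of growth.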 Calls of active or inactive are those of the source. Cut-off read from the data, not from the text of the source: active = GI50 up to about 1.1 µM and inactive = higher.

Columns and labels:
Assay in all cases: NCI anticancer screen, dose series, 48 h
A498 = test system: A498
K562 = test system: K562
786-0 = test system: 786-0
DU-145 = test system: DU-145
OVCAR-8 = test system: OVCAR-8
HOP-92 = test system: HOP-92
KM12 = test system: KM12
UO-31 = test system: UO-31
NCI-H460 = test system: NCI-H460
MCF7 = test system: MCF7
UACC-62 = test system: UACC-62
MDA-N = test system: MDA-N
RXF 393 = test system: RXF 393
OVCAR-4 = test system: OVCAR-4
NCI/ADR-RES = test system: NCI/ADR-RES
TK-10 = test system: TK-10
COLO 205 = test system: COLO 205
SK-MEL-2 = test system: SK-MEL-2
OVCAR-5 = test system: OVCAR-5
HCT-116 = test system: HCT-116
RPMI-8226 = test system: RPMI-8226
CCRF-CEM = test system: CCRF-CEM
HT-29 = test system: HT-29
SNB-19 = test system: SNB-19
A549 = test system: A549
SF-539 = test system: SF-539
UACC-257 = test system: UACC-257
SK-OV-3 = test system: SK-OV-3
SK-MEL-28 = test system: SK-MEL-28
HCT-15 = test system: HCT-15
SN12C = test system: SN12C
PC-3 = test system: PC-3
SF-268 = test system: SF-268
ACHN = test system: ACHN
HCC 2998 = test system: HCC 2998
M14 = test system: M14
MOLT-4 = test system: MOLT-4
CAKI-1 = test system: CAKI-1
U-251 = test system: U-251
MDA-MB-231 = test system: MDA-MB-231
SR = test system: SR
SK-MEL-5 = test system: SK-MEL-5
LOX IMVI = test system: LOX IMVI
NCI-H23 = test system: NCI-H23
MDA-MB-435 = test system: MDA-MB-435
NCI-H226 = test system: NCI-H226
SW-620 = test system: SW-620
HL-60 = test system: HL-60
EKVX = test system: EKVX
T47D = test system: T47D
HOP-62 = test system: HOP-62
SNB-75 = test system: SNB-75
SF-295 = test system: SF-295
Hs-578T = test system: Hs-578T
OVCAR-3 = test system: OVCAR-3
Malme-3M = test system: Malme-3M
IGROV-1 = test system: IGROV-1

With `Cc1ccccc1C1OC1C(=O)c1ccccc1N` (stereo unspecified) the GI50 (A498) was > 100 µM (inactive), the GI50 (K562) was 56.8 µM (inactive) and the GI50 (786-0) was 59.4 µM (inactive). The GI50 (DU-145) was > 100 µM (inactive), the GI50 (OVCAR-8) was > 100 µM (inactive) and the GI50 (HOP-92) was > 100 µM (inactive). For the same molecule, the GI50 (KM12) was 39.7 µM (inactive), the GI50 (UO-31) was 78.7 µM (inactive) and the GI50 (NCI-H460) was 63.8 µM (inactive). The GI50 (MCF7) was 55.3 µM (inactive), the GI50 (UACC-62) was 52.8 µM (inactive) and the GI50 (MDA-N) was 14.1 µM (inactive). The GI50 (RXF 393) was 90.4 µM (inactive), the GI50 (OVCAR-4) was 47.5 µM (inactive) and the GI50 (NCI/ADR-RES) was 51.3 µM (inactive). For the same molecule, the GI50 (TK-10) was > 100 µM (inactive), the GI50 (COLO 205) was 87.3 µM (inactive) and the GI50 (SK-MEL-2) was 43.3 µM (inactive). The GI50 (OVCAR-5) was > 100 µM (inactive), the GI50 (HCT-116) was 44.1 µM (inactive) and the GI50 (RPMI-8226) was 46.7 µM (inactive). For the same molecule, the GI50 (CCRF-CEM) was > 100 µM (inactive), the GI50 (HT-29) was 45.3 µM (inactive) and the GI50 (SNB-19) was 56.4 µM (inactive). The GI50 (A549) was 48 µM (inactive), the GI50 (SF-539) was 29.9 µM (inactive) and the GI50 (UACC-257) was 74.3 µM (inactive). For the same molecule, the GI50 (SK-OV-3) was > 100 µM (inactive), the GI50 (SK-MEL-28) was > 100 µM (inactive) and the GI50 (HCT-15) was 53.3 µM. The GI50 (SN12C) was 78.7 µM (inactive), the GI50 (PC-3) was 46.6 µM (inactive) and the GI50 (SF-268) was > 100 µM (inactive). For the same molecule, the GI50 (ACHN) was > 100 µM (inactive), the GI50 (HCC 2998) was > 100 µM (inactive) and the GI50 (M14) was 47.3 µM (inactive). The GI50 (MOLT-4) was 39.3 µM (inactive), the GI50 (CAKI-1) was 45.8 µM (inactive) and the GI50 (U-251) was > 100 µM (inactive). The GI50 (MDA-MB-231) was 31.6 µM (inactive), the GI50 (SR) was > 100 µM (inactive) and the GI50 (SK-MEL-5) was 44.5 µM (inactive). The GI50 (LOX IMVI) was 34.9 µM (inactive), the GI50 (NCI-H23) was 38.6 µM (inactive) and the GI50 (MDA-MB-435) was 20.7 µM (inactive). The GI50 (NCI-H226) was > 100 µM (inactive) and the GI50 (SW-620) was 80.4 µM (inactive).

With `Cn1cc(C(=O)c2nccc3c2cnc2ccccc23)ccc1=O` the GI50 (A498) was > 100 µM (inactive), the GI50 (HL-60) was > 100 µM (inactive) and the GI50 (K562) was > 100 µM (inactive). The GI50 (EKVX) was > 100 µM (inactive), the GI50 (786-0) was > 100 µM (inactive) and the GI50 (T47D) was > 100 µM (inactive). For the same molecule, the GI50 (DU-145) was > 100 µM (inactive), the GI50 (OVCAR-8) was > 100 µM (inactive) and the GI50 (HOP-92) was > 100 µM (inactive). The GI50 (KM12) was > 100 µM (inactive), the GI50 (UO-31) was 32.1 µM (inactive) and the GI50 (NCI-H460) was 26.5 µM (inactive). For the same molecule, the GI50 (UACC-62) was > 100 µM (inactive), the GI50 (MDA-N) was > 100 µM (inactive) and the GI50 (RXF 393) was < 0.01 µM (active). The GI50 (OVCAR-4) was > 100 µM (inactive), the GI50 (NCI/ADR-RES) was > 100 µM (inactive) and the GI50 (TK-10) was > 100 µM (inactive). For the same molecule, the GI50 (COLO 205) was 69.5 µM (inactive), the GI50 (SK-MEL-2) was > 100 µM (inactive) and the GI50 (OVCAR-5) was > 100 µM (inactive). The GI50 (HCT-116) was 31.9 µM (inactive), the GI50 (RPMI-8226) was > 100 µM (inactive) and the GI50 (CCRF-CEM) was > 100 µM (inactive). The GI50 (HT-29) was > 100 µM (inactive), the GI50 (HOP-62) was 25.9 µM (inactive) and the GI50 (SNB-19) was > 100 µM (inactive). For the same molecule, the GI50 (A549) was 56.1 µM (inactive), the GI50 (SF-539) was > 100 µM (inactive) and the GI50 (UACC-257) was > 100 µM (inactive). The GI50 (SK-OV-3) was > 100 µM (inactive), the GI50 (SK-MEL-28) was > 100 µM (inactive) and the GI50 (HCT-15) was over 100 µM. The GI50 (SN12C) was 59.3 µM (inactive), the GI50 (PC-3) was > 100 µM (inactive) and the GI50 (SF-268) was > 100 µM (inactive). For the same molecule, the GI50 (SNB-75) was 29.4 µM (inactive), the GI50 (ACHN) was 12.2 µM (inactive) and the GI50 (HCC 2998) was > 100 µM (inactive). For the same molecule, the GI50 (SF-295) was > 100 µM (inactive), the GI50 (M14) was > 100 µM (inactive) and the GI50 (MOLT-4) was > 100 µM (inactive). The GI50 (CAKI-1) was 13.2 µM (inactive), the GI50 (U-251) was > 100 µM (inactive) and the GI50 (MDA-MB-231) was > 100 µM (inactive). For the same molecule, the GI50 (Hs-578T) was > 100 µM (inactive), the GI50 (SR) was 8.17 µM (inactive) and the GI50 (SK-MEL-5) was 15.3 µM (inactive). For the same molecule, the GI50 (LOX IMVI) was > 100 µM (inactive), the GI50 (NCI-H23) was > 100 µM (inactive) and the GI50 (MDA-MB-435) was > 100 µM (inactive). The GI50 (NCI-H226) was > 100 µM (inactive), the GI50 (OVCAR-3) was > 100 µM (inactive) and the GI50 (SW-620) was > 100 µM (inactive). For the same molecule, the GI50 (Malme-3M) was > 100 µM (inactive).

In the case of `COc1cc2oc(=O)cc(C)c2c(OC)c1OC(C)=O`, the GI50 (A498) is reported as > 100 µM (inactive), the GI50 (IGROV-1) is reported as > 100 µM (inactive) and the GI50 (K562) is reported as > 100 µM (inactive). For the same molecule, the GI50 (EKVX) was > 100 µM (inactive), the GI50 (786-0) was > 100 µM (inactive) and the GI50 (DU-145) was > 100 µM (inactive). For the same molecule, the GI50 (OVCAR-8) was > 100 µM (inactive), the GI50 (KM12) was > 100 µM (inactive) and the GI50 (UO-31) was > 100 µM (inactive). For the same molecule, the GI50 (MCF7) was > 100 µM (inactive), the GI50 (UACC-62) was > 100 µM (inactive) and the GI50 (MDA-N) was > 100 µM (inactive). The GI50 (OVCAR-4) was > 100 µM (inactive), the GI50 (NCI/ADR-RES) was > 100 µM (inactive) and the GI50 (TK-10) was > 100 µM (inactive). The GI50 (COLO 205) was > 100 µM (inactive), the GI50 (SK-MEL-2) was > 100 µM (inactive) and the GI50 (OVCAR-5) was > 100 µM (inactive). The GI50 (HCT-116) was > 100 µM (inactive), the GI50 (RPMI-8226) was > 100 µM (inactive) and the GI50 (CCRF-CEM) was > 100 µM (inactive). The GI50 (HT-29) was > 100 µM (inactive), the GI50 (HOP-62) was > 100 µM (inactive) and the GI50 (SNB-19) was > 100 µM (inactive). For the same molecule, the GI50 (A549) was > 100 µM (inactive), the GI50 (UACC-257) was > 100 µM (inactive) and the GI50 (SK-OV-3) was > 100 µM (inactive). For the same molecule, the GI50 (SK-MEL-28) was > 100 µM (inactive), the GI50 (HCT-15) was over 100 µM and the GI50 (SN12C) was > 100 µM (inactive). For the same molecule, the GI50 (PC-3) was > 100 µM (inactive), the GI50 (SF-268) was > 100 µM (inactive) and the GI50 (SNB-75) was > 100 µM (inactive). The GI50 (ACHN) was > 100 µM (inactive), the GI50 (SF-295) was > 100 µM (inactive) and the GI50 (M14) was > 100 µM (inactive). The GI50 (MOLT-4) was > 100 µM (inactive), the GI50 (U-251) was > 100 µM (inactive) and the GI50 (MDA-MB-231) was > 100 µM (inactive). The GI50 (Hs-578T) was > 100 µM (inactive), the GI50 (SR) was > 100 µM (inactive) and the GI50 (SK-MEL-5) was > 100 µM (inactive). For the same molecule, the GI50 (LOX IMVI) was > 100 µM (inactive), the GI50 (NCI-H23) was > 100 µM (inactive) and the GI50 (MDA-MB-435) was > 100 µM (inactive). The GI50 (NCI-H226) was > 100 µM (inactive), the GI50 (OVCAR-3) was > 100 µM (inactive) and the GI50 (SW-620) was > 100 µM (inactive). The GI50 (Malme-3M) was > 100 µM (inactive).
